Source: ChEMBL document CHEMBL5696442, “Discovery of type II inhibitors of TGFβ-activated kinase 1 (TAK1) and mitogen-activated protein kinase kinase kinase kinase 2 (MAP4K2)” (J Med Chem, 2015)
Active and inactive are the calls of the source. The rule behind the calls is not given here.

Columns and labels:
[1] = molecular target: LIM domain kinase 2 (Homo sapiens) (UniProt P53671); assay: Inhibition of LIMK2 (unknown origin) at 10 uM by Ambit Kinomescan binding assay
[2] = tested on: Tyrosine-protein kinase ABL1 (Homo sapiens), P00519 [M351T]; assay: Inhibition of ABL1 M351T mutant (unknown origin) at 10 uM by Ambit Kinomescan binding assay relative to control
[3] = molecular target: Myosin light chain kinase family member 4 (Homo sapiens) (UniProt Q86YV6); assay: Inhibition of SgK085 (unknown origin) at 10 uM by Ambit Kinomescan binding assay
[4] = molecular target: Serine/threonine-protein kinase MARK2 (Homo sapiens) (UniProt Q7KZI7); assay: Inhibition of MARK2 K1 labeling site harbouring HILTGKEVAVKIIDKTQLNSSSLQK in human Huh-7 cells at 1 uM by KiNativ Profiling analysis relative to control; type: cell-based
[5] = molecular target: Casein kinase I isoform gamma-2 (Homo sapiens) (UniProt P78368); assay: Inhibition of CSNK1G2 (unknown origin) at 10 uM by Ambit Kinomescan binding assay
[6] = molecular target: Epithelial discoidin domain-containing receptor 1 (Homo sapiens) (UniProt Q08345); assay: Inhibition of DDR1 (unknown origin) at 10 uM by Ambit Kinomescan binding assay; values are per cent of control
[7] = Inhibition of p70S6K Lys2 labeling site in human Huh-7 cells at 1 uM by KiNativ Profiling analysis relative to control; details: condition cancer
[8] = molecular target: Ephrin type-A receptor 7 (Homo sapiens) (UniProt Q15375); assay: Inhibition of EPHA7 (unknown origin) at 1 uM by Ambit Kinomescan binding assay relative to control
[9] = molecular target: High affinity nerve growth factor receptor (Homo sapiens) (UniProt P04629); assay: Inhibition of TRKA (unknown origin) at 1 uM by Ambit Kinomescan binding assay relative to control
[10] = molecular target: Non-receptor tyrosine-protein kinase TNK1 (Homo sapiens) (UniProt Q13470); assay: Inhibition of TNK1 (unknown origin) at 1 uM by Ambit Kinomescan binding assay relative to control
[11] = molecular target: Non-receptor tyrosine-protein kinase TYK2 (Homo sapiens) (UniProt P29597); assay: Inhibition of TYK2 JH2 pseudokinase domain (unknown origin) at 1 uM by Ambit Kinomescan binding assay relative to control
[12] = molecular target: Epidermal growth factor receptor (Homo sapiens) (UniProt P00533); assay: Inhibition of EGFR (unknown origin) at 1 uM by Ambit Kinomescan binding assay relative to control
[13] = molecular target: T1, Atrial natriuretic peptide receptor 2 (Homo sapiens) (UniProt P20594); assay: Inhibition of ANPb Lys2 labeling site in human A-375 cells at 5 uM by KiNativ Profiling analysis relative to control; type: cell-based
T1 sequence (whole entry): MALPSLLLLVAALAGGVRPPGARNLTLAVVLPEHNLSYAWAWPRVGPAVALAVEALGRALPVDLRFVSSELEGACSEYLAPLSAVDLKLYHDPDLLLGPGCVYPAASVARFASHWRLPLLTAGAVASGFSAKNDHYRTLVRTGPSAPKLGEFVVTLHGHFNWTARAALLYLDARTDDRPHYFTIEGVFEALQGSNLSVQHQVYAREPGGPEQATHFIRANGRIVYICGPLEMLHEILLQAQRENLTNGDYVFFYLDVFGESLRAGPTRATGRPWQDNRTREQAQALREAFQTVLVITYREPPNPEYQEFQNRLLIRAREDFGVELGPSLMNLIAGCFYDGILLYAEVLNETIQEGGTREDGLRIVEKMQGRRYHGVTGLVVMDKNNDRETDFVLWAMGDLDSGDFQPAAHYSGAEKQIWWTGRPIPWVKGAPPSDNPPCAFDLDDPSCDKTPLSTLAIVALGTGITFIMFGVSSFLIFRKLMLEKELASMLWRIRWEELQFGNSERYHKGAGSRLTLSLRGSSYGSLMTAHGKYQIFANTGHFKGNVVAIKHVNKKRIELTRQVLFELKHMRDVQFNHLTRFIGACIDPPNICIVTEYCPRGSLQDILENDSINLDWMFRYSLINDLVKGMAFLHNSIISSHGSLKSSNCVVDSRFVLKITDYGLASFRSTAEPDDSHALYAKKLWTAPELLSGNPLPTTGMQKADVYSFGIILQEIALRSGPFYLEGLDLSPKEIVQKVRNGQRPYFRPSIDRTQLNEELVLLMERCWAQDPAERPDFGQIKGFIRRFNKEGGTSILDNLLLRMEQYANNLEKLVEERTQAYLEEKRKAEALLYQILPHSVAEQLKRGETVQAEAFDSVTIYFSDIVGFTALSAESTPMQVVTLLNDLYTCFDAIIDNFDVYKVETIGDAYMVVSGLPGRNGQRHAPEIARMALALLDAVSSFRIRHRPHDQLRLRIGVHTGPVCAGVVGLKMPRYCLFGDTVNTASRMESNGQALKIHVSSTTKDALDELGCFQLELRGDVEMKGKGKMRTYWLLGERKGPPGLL

[14] = molecular target: DNA-PK/Ku70/Ku85 (Homo sapiens) (UniProt P78527+P12956+P13010); assay: Inhibition of DNAPK ATP labeling site harbouring KGGSWIQEINVAEK in human A-375 cells at 0.05 uM by KiNativ Profiling analysis relative to control; type: cell-based
[15] = molecular target: T2, Eukaryotic elongation factor 2 kinase (Homo sapiens) (UniProt O00418); assay: Inhibition of eEF2K ATP labeling site harbouring YIKYNSNSGFVR in human A-375 cells at 0.5 uM by KiNativ Profiling analysis relative to control; type: cell-based
T2 sequence (whole entry): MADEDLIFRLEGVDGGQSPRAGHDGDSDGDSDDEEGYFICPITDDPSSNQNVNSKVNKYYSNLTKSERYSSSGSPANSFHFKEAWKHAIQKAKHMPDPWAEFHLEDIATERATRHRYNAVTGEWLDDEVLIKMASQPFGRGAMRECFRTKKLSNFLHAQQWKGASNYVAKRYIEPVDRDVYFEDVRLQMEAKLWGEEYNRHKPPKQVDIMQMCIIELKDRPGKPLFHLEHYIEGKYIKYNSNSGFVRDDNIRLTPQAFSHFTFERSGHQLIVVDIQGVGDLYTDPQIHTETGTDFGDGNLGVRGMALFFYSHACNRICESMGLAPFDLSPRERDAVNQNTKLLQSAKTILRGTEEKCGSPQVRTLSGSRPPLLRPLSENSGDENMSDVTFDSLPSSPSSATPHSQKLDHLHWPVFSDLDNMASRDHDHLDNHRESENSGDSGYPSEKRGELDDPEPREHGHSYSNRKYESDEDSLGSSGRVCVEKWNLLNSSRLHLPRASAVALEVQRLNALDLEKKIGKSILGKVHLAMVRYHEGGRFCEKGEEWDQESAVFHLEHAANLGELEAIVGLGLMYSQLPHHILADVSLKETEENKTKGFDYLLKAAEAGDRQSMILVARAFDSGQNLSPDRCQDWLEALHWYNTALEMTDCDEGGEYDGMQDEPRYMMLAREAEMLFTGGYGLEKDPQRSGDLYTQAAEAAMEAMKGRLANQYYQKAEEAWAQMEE

Chain of Epithelial discoidin domain-containing receptor 1 (Homo sapiens) (Q08345 whole entry, the tested form may be a part): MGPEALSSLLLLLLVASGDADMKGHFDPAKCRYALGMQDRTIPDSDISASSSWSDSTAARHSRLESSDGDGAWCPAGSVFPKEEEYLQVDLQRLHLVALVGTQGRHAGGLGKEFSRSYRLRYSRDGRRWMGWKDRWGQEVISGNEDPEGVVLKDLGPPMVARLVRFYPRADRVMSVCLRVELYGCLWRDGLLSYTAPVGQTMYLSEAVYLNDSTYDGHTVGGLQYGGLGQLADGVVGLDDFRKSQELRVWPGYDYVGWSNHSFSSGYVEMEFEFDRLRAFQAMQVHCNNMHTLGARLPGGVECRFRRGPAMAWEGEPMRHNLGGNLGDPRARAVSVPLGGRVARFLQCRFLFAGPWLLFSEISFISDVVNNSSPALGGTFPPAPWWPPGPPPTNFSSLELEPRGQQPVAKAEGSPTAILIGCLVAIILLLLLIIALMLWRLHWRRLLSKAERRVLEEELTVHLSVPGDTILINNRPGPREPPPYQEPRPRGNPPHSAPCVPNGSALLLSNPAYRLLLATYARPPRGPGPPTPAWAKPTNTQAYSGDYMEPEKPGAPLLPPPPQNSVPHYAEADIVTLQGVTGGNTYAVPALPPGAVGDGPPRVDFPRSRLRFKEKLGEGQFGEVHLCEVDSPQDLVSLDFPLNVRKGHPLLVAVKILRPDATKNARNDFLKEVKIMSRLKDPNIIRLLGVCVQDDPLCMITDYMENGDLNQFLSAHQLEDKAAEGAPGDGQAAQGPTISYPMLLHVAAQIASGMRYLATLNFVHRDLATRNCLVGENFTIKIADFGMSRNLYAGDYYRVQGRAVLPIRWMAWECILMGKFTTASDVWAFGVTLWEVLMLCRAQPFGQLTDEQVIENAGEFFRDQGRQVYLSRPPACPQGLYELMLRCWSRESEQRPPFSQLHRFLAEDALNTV
Chain of Non-receptor tyrosine-protein kinase TYK2 (Homo sapiens) (P29597 whole entry, the tested form may be a part): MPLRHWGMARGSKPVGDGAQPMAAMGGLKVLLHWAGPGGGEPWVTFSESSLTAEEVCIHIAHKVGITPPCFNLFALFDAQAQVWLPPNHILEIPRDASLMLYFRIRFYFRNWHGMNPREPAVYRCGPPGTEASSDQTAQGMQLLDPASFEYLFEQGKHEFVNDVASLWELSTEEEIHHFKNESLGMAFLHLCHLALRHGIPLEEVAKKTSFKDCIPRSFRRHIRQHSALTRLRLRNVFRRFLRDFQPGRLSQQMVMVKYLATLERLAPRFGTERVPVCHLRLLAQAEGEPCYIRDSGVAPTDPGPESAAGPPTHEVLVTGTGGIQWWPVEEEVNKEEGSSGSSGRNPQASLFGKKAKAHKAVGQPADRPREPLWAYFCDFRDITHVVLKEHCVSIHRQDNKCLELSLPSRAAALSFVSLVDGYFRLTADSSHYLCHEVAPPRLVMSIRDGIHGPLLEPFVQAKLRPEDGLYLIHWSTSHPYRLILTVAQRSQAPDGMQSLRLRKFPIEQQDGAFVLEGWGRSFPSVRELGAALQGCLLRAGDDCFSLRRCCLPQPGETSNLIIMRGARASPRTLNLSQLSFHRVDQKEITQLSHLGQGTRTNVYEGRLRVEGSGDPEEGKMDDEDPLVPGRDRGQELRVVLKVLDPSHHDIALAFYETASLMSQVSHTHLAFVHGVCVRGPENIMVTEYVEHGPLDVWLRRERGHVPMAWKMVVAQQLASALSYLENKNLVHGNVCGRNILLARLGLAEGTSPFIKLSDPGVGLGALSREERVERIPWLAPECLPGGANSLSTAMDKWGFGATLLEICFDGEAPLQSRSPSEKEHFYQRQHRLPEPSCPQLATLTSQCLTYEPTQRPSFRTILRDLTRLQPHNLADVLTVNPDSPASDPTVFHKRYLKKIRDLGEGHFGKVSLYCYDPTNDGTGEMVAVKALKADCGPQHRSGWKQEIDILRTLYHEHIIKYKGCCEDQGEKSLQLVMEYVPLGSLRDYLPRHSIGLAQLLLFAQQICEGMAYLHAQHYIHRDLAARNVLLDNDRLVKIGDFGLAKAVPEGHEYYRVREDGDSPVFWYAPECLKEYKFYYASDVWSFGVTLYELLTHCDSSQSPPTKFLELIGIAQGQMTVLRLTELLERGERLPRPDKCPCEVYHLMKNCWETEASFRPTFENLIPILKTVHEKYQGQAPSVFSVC
Chain of Serine/threonine-protein kinase MARK2 (Homo sapiens) (Q7KZI7 whole entry, canonical isoform): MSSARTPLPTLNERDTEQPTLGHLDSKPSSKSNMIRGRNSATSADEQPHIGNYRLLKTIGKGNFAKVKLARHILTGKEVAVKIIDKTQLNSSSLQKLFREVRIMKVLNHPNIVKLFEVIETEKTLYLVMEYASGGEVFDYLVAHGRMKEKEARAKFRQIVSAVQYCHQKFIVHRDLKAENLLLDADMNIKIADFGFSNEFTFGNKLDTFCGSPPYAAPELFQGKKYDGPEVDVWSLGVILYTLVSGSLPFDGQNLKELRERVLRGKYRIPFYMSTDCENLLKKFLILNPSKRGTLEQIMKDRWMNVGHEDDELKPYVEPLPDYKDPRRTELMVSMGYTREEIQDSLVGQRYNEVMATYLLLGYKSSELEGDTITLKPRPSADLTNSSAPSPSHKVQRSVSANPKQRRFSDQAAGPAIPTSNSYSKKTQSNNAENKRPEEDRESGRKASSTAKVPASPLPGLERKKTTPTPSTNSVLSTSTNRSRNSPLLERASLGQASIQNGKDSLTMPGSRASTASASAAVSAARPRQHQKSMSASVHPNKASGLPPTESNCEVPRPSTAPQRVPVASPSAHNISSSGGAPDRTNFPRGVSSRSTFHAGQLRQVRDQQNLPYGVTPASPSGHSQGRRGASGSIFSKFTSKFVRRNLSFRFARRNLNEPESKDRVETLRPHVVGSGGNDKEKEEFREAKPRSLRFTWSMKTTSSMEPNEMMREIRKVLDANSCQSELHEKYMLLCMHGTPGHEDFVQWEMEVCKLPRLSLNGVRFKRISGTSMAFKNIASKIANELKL
Chain of High affinity nerve growth factor receptor (Homo sapiens) (P04629 33-796 limits assumed): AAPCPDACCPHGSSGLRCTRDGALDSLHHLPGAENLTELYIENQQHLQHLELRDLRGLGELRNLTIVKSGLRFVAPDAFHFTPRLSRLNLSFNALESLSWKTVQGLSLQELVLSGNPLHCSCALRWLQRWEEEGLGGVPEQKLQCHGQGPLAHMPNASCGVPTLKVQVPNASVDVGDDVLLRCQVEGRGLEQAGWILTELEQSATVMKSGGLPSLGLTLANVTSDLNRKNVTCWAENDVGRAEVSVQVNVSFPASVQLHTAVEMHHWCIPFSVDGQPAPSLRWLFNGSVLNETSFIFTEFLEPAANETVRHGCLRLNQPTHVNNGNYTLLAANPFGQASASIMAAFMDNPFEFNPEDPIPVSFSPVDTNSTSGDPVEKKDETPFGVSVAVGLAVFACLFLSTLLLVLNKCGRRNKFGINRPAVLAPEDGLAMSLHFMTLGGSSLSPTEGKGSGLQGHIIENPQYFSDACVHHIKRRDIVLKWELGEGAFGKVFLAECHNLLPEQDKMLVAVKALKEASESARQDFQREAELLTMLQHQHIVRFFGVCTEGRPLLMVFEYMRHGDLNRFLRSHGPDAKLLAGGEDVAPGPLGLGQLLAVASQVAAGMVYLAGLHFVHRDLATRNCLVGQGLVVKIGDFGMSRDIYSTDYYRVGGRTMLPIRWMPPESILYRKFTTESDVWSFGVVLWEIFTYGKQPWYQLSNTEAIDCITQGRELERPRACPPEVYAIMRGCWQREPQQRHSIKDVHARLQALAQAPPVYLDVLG
Chain of Ephrin type-A receptor 7 (Homo sapiens) (Q15375 28-998 limits assumed): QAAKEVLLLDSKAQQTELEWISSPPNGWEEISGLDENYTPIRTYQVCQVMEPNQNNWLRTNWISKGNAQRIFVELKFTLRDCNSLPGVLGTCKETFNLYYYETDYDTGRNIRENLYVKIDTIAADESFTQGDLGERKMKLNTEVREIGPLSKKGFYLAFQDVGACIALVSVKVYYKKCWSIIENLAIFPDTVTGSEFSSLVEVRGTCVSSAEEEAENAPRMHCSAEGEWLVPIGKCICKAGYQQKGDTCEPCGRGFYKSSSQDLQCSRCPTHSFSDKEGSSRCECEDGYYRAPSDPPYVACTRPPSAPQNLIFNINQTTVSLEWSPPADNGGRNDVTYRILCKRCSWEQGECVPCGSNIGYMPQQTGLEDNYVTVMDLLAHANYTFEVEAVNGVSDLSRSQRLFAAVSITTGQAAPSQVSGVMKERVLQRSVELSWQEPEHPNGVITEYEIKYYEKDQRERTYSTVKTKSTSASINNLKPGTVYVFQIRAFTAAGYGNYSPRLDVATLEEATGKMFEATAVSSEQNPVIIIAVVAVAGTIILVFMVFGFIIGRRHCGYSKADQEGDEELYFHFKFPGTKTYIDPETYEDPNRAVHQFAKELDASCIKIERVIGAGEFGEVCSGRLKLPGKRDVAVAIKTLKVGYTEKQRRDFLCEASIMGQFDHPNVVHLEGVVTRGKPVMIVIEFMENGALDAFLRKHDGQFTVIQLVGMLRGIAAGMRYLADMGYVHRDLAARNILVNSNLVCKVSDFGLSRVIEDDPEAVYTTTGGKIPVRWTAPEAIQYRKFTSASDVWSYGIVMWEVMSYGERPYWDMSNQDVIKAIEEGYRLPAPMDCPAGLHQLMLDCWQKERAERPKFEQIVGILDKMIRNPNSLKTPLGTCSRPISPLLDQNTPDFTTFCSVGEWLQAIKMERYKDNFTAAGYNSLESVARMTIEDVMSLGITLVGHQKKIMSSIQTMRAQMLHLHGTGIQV
Chain of Casein kinase I isoform gamma-2 (Homo sapiens) (P78368 whole entry, looked up, the tested form may be a part, canonical isoform): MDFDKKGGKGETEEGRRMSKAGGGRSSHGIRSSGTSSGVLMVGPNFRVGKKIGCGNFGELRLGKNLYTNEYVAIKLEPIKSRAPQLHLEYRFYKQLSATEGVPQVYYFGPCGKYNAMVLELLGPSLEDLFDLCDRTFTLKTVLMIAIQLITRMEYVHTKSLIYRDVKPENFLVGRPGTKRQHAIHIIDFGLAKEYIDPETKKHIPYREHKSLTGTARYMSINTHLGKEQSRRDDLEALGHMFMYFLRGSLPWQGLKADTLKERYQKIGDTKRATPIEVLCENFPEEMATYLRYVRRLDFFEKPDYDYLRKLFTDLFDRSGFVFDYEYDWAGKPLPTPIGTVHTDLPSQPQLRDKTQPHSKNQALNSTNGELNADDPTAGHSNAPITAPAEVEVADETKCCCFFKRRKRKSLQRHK

Structure (SMILES): CCN1CCN(Cc2ccc(NC(=O)c3ccc(C)c(Oc4ccnc5[nH]ccc45)c3)cc2C(F)(F)F)CC1
- inhibition [1]: inactive
- inhibition [2]: 0.35%
- inhibition [3]: inactive
- inhibition [4]: inactive
- inhibition [5]: inactive
- percent of control [6]: 0.05%

Structure (SMILES): CNc1cc(Oc2cc(C(=O)Nc3cc(N4CCN(C)CC4)cc(C(F)(F)F)c3)ccc2C)ncn1
- inhibition at 1 µM [7]: -110%

Structure (SMILES): CCN1CCN(Cc2ccc(NC(=O)c3ccc(C)c(/C=C/c4cnc5[nH]ccc5c4OC)c3)cc2C(F)(F)F)CC1
- inhibition [8]: 78%
- inhibition [9]: 54%
- inhibition [10]: 6.6%
- inhibition [11]: 47%
- inhibition [12]: 7.6%
- inhibition [13]: -8.8%
- inhibition [14]: 17.7%
- inhibition [15]: -8.5%
